These results are taken from US20150071967A1, “Tolerisation-Inducing Composition” (University of Bristol, priority 2012, published 2015).

One experiment deals with naive CD4+ T cells. The experiment in a line: IL-10 in naive CD4+ T cells cultured with GSK-3 inhibitors (ICCS, bead immunoassay). It counts as cell-based, mouse. The conditions noted are these: for IL-10 production: naive CD4+CD62L+ T-cells from Tg4 spleens, cultured in the presence of GSK3 inhibitors; for Intracellular IL-10 levels: naive Tg4 CD4+ cells, anti CD3/anti CD28 Dynabeads, 2 μM CHIR99021 or 3 μM SB216763, ICCS day 7. As for the experimental part: A. CD4^+/CD62L^+ T cells were isolated from Tg4 splenocytes and cultured with anti-CD3/anti-CD28 coated beads in the presence of IL-2 and DMSO (1:1000; Control), CHIR99021 (2 μM), SB216763 (5 μM) or SB627772 (10 μM). Intracellular cytokine staining for […] and IL-10 was carried out on day 7 of restimulation after PMA and lonomycin stimulation. Data are plots gated on live CD4^+ cells and are representative of 3 independent experiments.
B. Tissue culture supernatants were taken on day 3 of restimulation and analysed for IL-10 by fluorescent bead immunoassay. Data are mean+/−SEM of 3 independent experiments.
CD4+ cells purified from a naive Tg4 spleen were cultured in the presence of 2 μM CHIR99021, 3 μM SB216763 or 0.02% DMSO (vehicle control) with anti CD3/anti CD28 Dynabeads. Cells were analysed by ICCS on Day 7 after stimulation.
(§1) In a separate experiment, CD4+ cells from Tg4 mice which express TCR specific for the peptide Ac[1-9] of MBP were polarised to a Th1 phenotype and then cultured in the presence of GSK3 inhibitors. Three structurally distinct inhibitors, CHIR99021, SB216763 and SB627772 were used to minimise effects of off-target inhibition.

Experiment [1] concerns Th1 cells. The experiment in a line: IL-10 protein in Th1-polarised CD4+ cells restimulated with GSK-3 inhibitors (ICCS, bead immunoassay). Type of experiment: cell-based, mouse. The settings on record: for IL-10 protein: Th1 CD4+ cells restimulated with APCs and peptide or with anti-CD3/anti-CD28 coated beads; for Intracellular IL-10 levels: Th1 cells restimulated with anti CD3/anti CD28 Dynabeads, 2 μM CHIR99021 or 3 μM SB216763, ICCS day 7. As for the experimental part: A. Splenocytes from a naive Tg4 mouse were cultured in the presence of peptide MBP Ac1-9 (10 μg/ml) and IL-12 with IL-2 added on day 3 of culture to polarise CD4+ cells towards a Th1 phenotype. On day 7 of culture, Th1 cells were restimulated with fresh irradiated APCs from a B10_PL mouse in the presence of DMSO (1:1000; Control), CHIR99021 (2 μM), SB216763 (5 μM) or SB627772 (10 μM) as well as peptide MBP Ac1-9 (10 μg/ml). IL-2 was added on day 3 of culture and intracellular cytokine staining for IFNγ and IL-10 carried out on day 7 of restimulation after PMA and lonomycin stimulation. Data are plots gated on live CD4^+ cells and are representative of 5 independent experiments.
C. Splenocytes from a naive Tg4 mouse were cultured in the presence of peptide MBP Ac1-9 (10 μg/ml) and IL-12 with IL-2 added on day 3 of culture to polarise CD4+ cells towards a Th1 phenotype. On day 7 of culture, Th1 CD4+ cells were isolated and restimulated with anti-CD3/anti-CD28 coated beads in the presence of IL-2 and DMSO (1:1000; Control), CHIR99021 (2 μM), SB216763 (5 μM) or SB627772 (10 μM). Intracellular cytokine staining for IFNγ and IL-10 was carried out on day 7 of restimulation after PMA and lonomycin stimulation. Data are plots gated on live CD4^+ cells and are representative of 4 independent experiments.
E. Tissue culture supernatants were taken on day 3 of restimulation and analysed for IL-10 by fluorescent bead immunoassay. Data are mean+/−SEM and are representative of 3 independent experiments.
Splenocytes from a naive Tg4 mouse were cultured in the presence of peptide MBP Ac1-9 (10 μg/ml) and IL12 with IL2 added on day 3 to polarise cells to a Th1 phenotype. On day 7, cells were restimulated with anti CD3/anti CD28 Dynabeads and 2 μM CHIR99021, 3 μM SB216763 or 0.02% DMSO (vehicle control). Cells were analysed by ICCS on Day 7 after stimulation. Intracellular IL-10 levels were increased following treatment with either GSK-3 inhibitor (CHIR99021 or SB216763).
as §1

The subject of experiment [2] is Th1 cells. The experiment in a line: IL-10 mRNA by qPCR in Th1 CD4+ cells. The settings on record: IL-10 relative to HPRT1. Type of experiment: cell-based, mouse. As for the experimental part:
F. Splenocytes from a naive Tg4 mouse were cultured in the presence of peptide MBP Ac1-9 (10 μg/ml) and IL-12 with IL-2 added on day 3 of culture to polarise CD4+ cells towards a Th1 phenotype. On day 7 of culture, Th1 cells were restimulated with fresh irradiated APCs from a B10_PL mouse in the presence of DMSO (1:1000; Control), CHIR99021 (2 μM), SB216763 (5 μM) or SB627772 (10 µM) as well as peptide MBP Ac1-9 (10 μg/ml). IL-2 was added on day 3 of culture. On day 7 of restimulation live CD4^+ cells were selected and stimulated with anti CD3/CD28 antibodies for 16 hrs. RNA was extracted and IL-10 mRNA quantified by qPCR. IL-10 quantities are shown relative to HPRT1 control.
as §1
For orientation: Quantitative PCR measures a nucleic acid by following its amplification.

In experiment [3] the test system is β-catenin. The experiment in a line: beta-catenin Western blot in Th1 CD4+ cells. It counts as cell-based, mouse. The settings on record: for β-catenin accumulation (Western blot): CD4+ cells, 2 μM CHIR99021, 5 μM SB216763, 10 μM SB627772; for β-catenin levels (Western blot): Th1 cells restimulated with APCs and peptide, indicated concentrations, day 7. As for the experimental part:
G. Splenocytes from a naive Tg4 mouse were cultured in the presence of peptide MBP Ac1-9 (10 μg/ml) and IL-12 with IL-2 added on day 3 to polarise cells to a Th1 phenotype. On day 7 cells were restimulated with fresh irradiated APCs from a B10_PL mouse, peptide Ac1-9 of MBP (10 μg/ml) and the indicated concentrations of CHIR99021, SB216763 or SB627772. On day 7 of restimulation, CD4^+ cells were lysed in RIPA buffer, subjected to Western blotting and probed with beta catenin antibody. The membrane was stripped and reprobed for GAPDH as a loading control.
Splenocytes from a naive Tg4 mouse were cultured in the presence of peptide MBP Ac1-9 (10 μg/ml) and IL12 with IL2 added on day 3 to polarise cells to a Th1 phenotype. On day 7 cells were restimulated with fresh irradiated APCs, peptide Ac1-9 of MBP (10 μg/ml) and the indicated concentrations of SB216763 or CHIR99021. On day 7 of restimulation, cells were lysed in RIPA buffer, subjected to Western blotting and probed with beta catenin antibody. The membrane was stripped and reprobed for GAPDH as a loading control. GSK-3 consititutively phosphorylates the β-catenin protein, leading to its degradation.

Experiment [4] has as its system β-catenin. The conditions noted are these: cited from earlier work.
In a further experiment the test system is APC / Th1 CD4+ cells. Nature of the experiment: IL-10 with APCs from WT or IL-10 knockout mice (ICCS, ELISA). Type of experiment: cell-based, mouse. The settings on record: 2 μM CHIR99021, APCs from WT or IL10 knockout mice, ICCS and day 3 ELISA. As for the experimental part:
A. Splenocytes from a naive Tg4 mouse were cultured in the presence of peptide MBP Ac1-9 (10 μg/ml) and IL-12 with IL-2 added on day 3 of culture to polarise CD4+ cells towards a Th1 phenotype. On day 7 of culture, Th1 cells were restimulated with fresh irradiated APCs from either a B10_PL or B10_PL IL10^−/− mouse in the presence of DMSO (1:1000; Control) or CHIR99021 (2 μM). IL-2 was added on day 3 of culture and intracellular cytokine staining for […] and IL-10 carried out on day 7 of restimulation after PMA and lonomycin stimulation. Data are plots gated on live CD4^+ cells and are representative of 3 independent experiments. B. Tissue culture supernatants were taken on day 3 of restimulation and analysed for IL-10 by ELISA. Data are mean+/−SEM and are representative of 3 independent experiments. Splenocytes from a naive Tg4 mouse were cultured in the presence of either: (a) peptide MBP Ac1-9 (10 μg/ml) and IL12 with IL2 added on day 3 to polarise cells to a Th1 phenotype; or (b) IL4 and anti IFNγ with IL2 added on day 3 to polarise cells to a Th2 phenotype. On day 7 CD4+ cells were restimulated with fresh irradiated APCs from either WT or IL10 knockout mice, 2 μM CHIR99021 or 0.02% DMSO (vehicle control) and peptide […] of MBP (10 μg/ml). Supernatants were taken in triplicate on day 3 and analysed for IL-10 by ELISA (FIG. 3 (E)). […]

In the case of `Cn1cc(C2=C(c3ccc(Cl)cc3Cl)C(=O)NC2=O)c2ccccc21` [SB216763], in the experiment on naive CD4+ T cells, the IL-10 production result is “did not show any change” and the “Intracellular IL-10 levels” value is recorded as “not significantly affected”. In the experiment on Th1 cells [1], the IL-10 protein entry was “significantly increased” and the “Intracellular IL-10 levels” value is “increased”. In the experiment on Th1 cells [2], the “IL-10 mRNA (qPCR)” value was “upregulation”. Also, in the experiment with β-catenin [3], the “β-catenin accumulation (Western blot)” value is listed as “no accumulation of β-catenin” and the “β-catenin levels (Western blot)” value was “does not appear to cause a significant effect on β-catenin levels”.

As to `O=C1NC(=O)C(c2ccccc2[N+](=O)[O-])=C1Nc1ccc(O)c(Cl)c1` [SB415286], the “Level of β-catenin” value in the experiment on β-catenin [4] is “elevate the level of 13-catenin”.

As for `Cc1c[nH]c(-c2cnc(NCCNc3ccc(C#N)cn3)nc2-c2ccc(Cl)cc2Cl)n1` [CHIR99021], in the experiment on naive CD4+ T cells, the IL-10 production entry is reported as “did not show any change” and the “Intracellular IL-10 levels” value is given as “not significantly affected”. Also, in the experiment on Th1 cells [1], the IL-10 protein result was “significantly increased” and the “Intracellular IL-10 levels” value is reported as “increased”. Moreover, the “IL-10 mRNA (qPCR)” value with Th1 cells [2] is listed as “upregulation”. The “IL-10 in / produced by the APC” value in the experiment on APC / Th1 CD4+ cells is reported as “Neither the intracellular level of IL-10 in the APC nor the production of IL-10 by the APC was enhanced”. Also, in the experiment with β-catenin [3], the “β-catenin accumulation (Western blot)” value was “no accumulation of β-catenin” and the “β-catenin levels (Western blot)” value is on record as “degradation of β-catenin appears to be inhibited, leading to build up of the β-catenin protein”.
